ChEMBL document CHEMBL1144956, “Chemical synthesis and cytotoxicity of dihydroxylated cyclopentenone analogues of neocarzinostatin chromophore” (Bioorg Med Chem Lett, 2003)

What was measured:
Type in all cases: functional, cell-based
[1] = test system: K562; assay: In vitro cytotoxic activity against human leukemic cell line K562 after incubation for 1 hour; conditions: K562, 1 h
[2] = test system: A2780; assay: In vitro cytotoxic activity against human tumor cell line A2780CisR after incubation for 96 hours; conditions: A2780, 96 h
[3] = test system: A2780; assay: In vitro cytotoxic activity against human tumor cell line A2780 after incubation for 96 hours; conditions: A2780, 96 h
[4] = test system: CH1; assay: In vitro cytotoxic activity against human tumor cell line CH1 after incubation for 96 hours; conditions: CH1, 96 h
[5] = test system: HT-29; assay: In vitro cytotoxic activity against human tumor cell line HT-29 after incubation for 96 hours; conditions: HT-29, 96 h
[6] = test system: SK-OV-3; assay: In vitro cytotoxic activity against human tumor cell line SKOV-3 after incubation for 96 hours; conditions: SK-OV-3, 96 h

COc1cc(C)c2ccc(O)c(C(=O)O[C@H]3[C@H](O)C=C[C@@H]3O)c2c1
IC50 [1]: > 100 µM

COc1cc(C)c2ccc(O)c(C(=O)O[C@@H]3C=CC(=O)[C@H]3O)c2c1
IC50 [2]: 4 µM | IC50 [3]: 2.5 µM | IC50 [4]: 2.5 µM | IC50 [5]: 11 µM | IC50 [1]: 5 µM | IC50 [6]: 2.5 µM

COc1cc(C)c2ccc(O)c(C(=O)O[C@@H]3C(=O)C=C[C@H]3O)c2c1
IC50 [2]: 9 µM | IC50 [3]: 9.4 µM | IC50 [4]: 11 µM | IC50 [5]: 13 µM | IC50 [1]: 4.5 µM | IC50 [6]: 7.2 µM

O=C(O[C@H]1[C@H](O)C=C[C@@H]1O)c1c(O)ccc2ccccc12
IC50 [1]: > 100 µM

O=C(O[C@@H]1C=CC(=O)[C@H]1O)c1c(O)ccc2ccccc12
IC50 [2]: 8.6 µM | IC50 [3]: 2.7 µM | IC50 [4]: 4 µM | IC50 [5]: 12 µM | IC50 [1]: 6 µM | IC50 [6]: 2.3 µM

O=C(O[C@@H]1C(=O)C=C[C@H]1O)c1c(O)ccc2ccccc12
IC50 [2]: 9.4 µM | IC50 [3]: 3.7 µM | IC50 [4]: 5.8 µM | IC50 [5]: 12 µM | IC50 [1]: 4 µM | IC50 [6]: 3.1 µM

O=C(O[C@@H]1C=C[C@H](O)[C@H]1O)c1c(O)ccc2ccccc12
IC50 [1]: > 100 µM

O=C(O[C@@H]1C=C(Br)C(=O)[C@H]1O)c1c(O)ccc2ccccc12
IC50 [2]: 17.5 µM | IC50 [3]: 10 µM | IC50 [4]: 11 µM | IC50 [5]: > 25 µM | IC50 [1]: 3.5 µM | IC50 [6]: 11 µM

COc1cc(C)c2ccc(O)c(C(=O)O[C@@H]3C=C[C@H](O)[C@H]3O)c2c1
IC50 [1]: > 100 µM

O=C(O[C@@H]1C(=O)C(Br)=C[C@H]1O)c1c(O)ccc2ccccc12
IC50 [2]: 13 µM | IC50 [3]: 9.4 µM | IC50 [4]: 11 µM | IC50 [5]: > 25 µM | IC50 [1]: 5 µM | IC50 [6]: 9.4 µM
